Data from patent publication US20240279304A1, “DSG2 COMPOSITIONS AND METHODS” (Arvada Therapeutics, Inc., priority 2021, published 2024).
“Also recorded” adds a separate entry of the source.

Key:
anti-DSG2 antibody = anti-DSG2 antibody meso scale discovery (MSD) assay, blocking of anti-DSG2 antibody; type: binding; conditions: for % inhibition: fraction C (table title)
Description: (§1) The DSG2 fusion polypeptides were tested for the ability to block anti-DSG2 antibody by an anti-DSG2 antibody meso scale discovery (MSD) assay. […] The DSG2 fusion polypeptides were subjected to size exclusion chromatography and different elution fractions were examined. […] As shown in Table 7 and FIG. 1B, FIG. 1C, and FIG. 1D, enriching for fraction C improved the ability of the DSG2 fusion polypeptides to block ARVC patient serum.

[1] = test system: human iPSC-derived cardiomyocytes; experiment: CiPA multielectrode array (MEA) assay, cell index; type: cell-based
Description: To determine the effect of anti-DSG2 antibodies in cardiomyocytes, the cardiac in vitro proarrhythmia (CiPA) assay was performed (Sager et al. Am Heart J 2014; 167:292-300; the contents of which are herein incorporated by reference in its entirety). CiPA is envisioned to consist of four components: (1) an evaluation of the effects of test agents on cardiac ion channel assays; (2) in silico modeling of the cardiac action potential based on the ion channel results to integrate the data with cardiac function; (3) experimental measurement of test agent effects in human ventricular myocytes to confirm the modeling result; and (4) scoring the results. The multielectrode array (MEA) assay is a component of CiPA which uses human induced pluripotent stem cell (iPSC)-derived cardiomyocytes to evaluate two-dimensional excitation propagation by recording spontaneous ECG-like field potentials. The sodium spike quantified below is a measurement of the specific sodium channel current in the cardiomyocyte and is also described in Blinova K, et al. Cell Rep. 2018 Sep. 25; 24(13):3582-3592 (the contents of which are herein incorporated by reference in its entirety). CiPA is considered a clinically validated cardiomyocyte-based assay by the FDA and the EMA. […] The parameters evaluated include measuring a change in the spike in the component of electrical signal propagation (e.g. sodium spike) and cell index—a function of cell impedance and cell number. Changes in sodium spike may be indicative of arrhythmia and a change in cell index (CI) may be indicative of changes to cell connectivity.
Cell index is inversely related the cell layer's conductivity to electrical current. Increased conductivity across the cell layer, may indicate that there are more gaps in the cell layer, implying that the cells are less well-adhered to each other. Thus, increased conductivity across the cell layer, may result in lower cell index. […] The concentration of anti-DSG2 antibodies varied from 0.00005 μg/mL to 5 μg/mL. […] The concentration of lidocaine varied from 3 μM to 100 μM. […] The concentration of anti-DSG2 antibodies varied from 0.00005 μg/mL to 5 μg/mL.

[2] = Dynamic light scattering (DLS) of DSG2 fusion polypeptides; type: physicochemical; conditions: average polymer distribution index
From the text: 6 candidates were compared to the reference sample.

[3] = test system: ARVC serum (anti-DSG2 antibodies in serum obtained from ARVC patients); experiment: anti-DSG2 antibody MSD assay, blocking of ARVC patient serum; type: binding, human; design: % inhibition: concentration or dose not given beside the values; conditions: for % inhibition: fraction C (table title)
Description: as §1
ARVC diagnosis is based on complex tool known as Task Force Criteria, which can lead to varying levels of conviction about ARVC diagnosis. The utility of DSG2 antibodies as an indicator of ARVC disease state and severity was explored. Approximately 50 cc serum was collected from diagnosed ARVC patients. A total of 10 ARVC patients and 5 healthy controls were used for the analysis. ARVC serum samples were separated into more robust diagnosis and less robust diagnosis, based on available data in the patient medical records and anti-DSG2 antibody levels were compared using an anti-DSG2 antibody meso scale discovery (MSD)-based assay.

[4] = test system: human iPSC cardiomyocytes; experiment: CiPA multielectrode array (MEA) assay, sodium spike; type: cell-based; conditions: 1.1 μg/mL DSG2FP #1; anti-DSG2 antibodies 0.5 μg/mL
Description: To determine the effect of anti-DSG2 antibodies in cardiomyocytes, the cardiac in vitro proarrhythmia (CiPA) assay was performed (Sager et al. Am Heart J 2014; 167:292-300; the contents of which are herein incorporated by reference in its entirety). CiPA is envisioned to consist of four components: (1) an evaluation of the effects of test agents on cardiac ion channel assays; (2) in silico modeling of the cardiac action potential based on the ion channel results to integrate the data with cardiac function; (3) experimental measurement of test agent effects in human ventricular myocytes to confirm the modeling result; and (4) scoring the results. […] The sodium spike quantified below is a measurement of the specific sodium channel current in the cardiomyocyte and is also described in Blinova K, et al. Cell Rep. […] The parameters evaluated include measuring a change in the spike in the component of electrical signal propagation (e.g. sodium spike) and cell index—a function of cell impedance and cell number. […]
Commercially available anti-DSG2 antibodies were tested in the cardiomyocyte CiPA assay. […] The voltage (μV) is measured at time intervals of 0, 1 hour, 12 hours, 24 hours, 48 hours, 72 hours, and 96 hours. […]

For “DSG2FP#1: R&D Systems DSG2 extracellular domain (49-608 of SEQ ID NO: 30); linker IEGRMD; amino acids 100-330 of IgG1”, the “ability to bind to and block anti-DSG2 antibody (in words)” value (anti-DSG2 antibody) was “able to bind and block anti-DSG2 antibody”, the “% inhibition” value (anti-DSG2 antibody; sample: Anti-DSG2 antibody (200 ng/mL) control) was 63.8% and the “% inhibition” value (anti-DSG2 antibody; sample: Anti-DSG2 antibody (1000 ng/mL) control) was 88.4%. For the same substance, the “% inhibition” value (anti-DSG2 antibody; sample: no antibody control) was 4.8%, the “reversal of effects of anti-DSG2 antibodies on cell index (in words)” value [1] was “reversed; also recorded: completely blocks the effect of the anti-DSG2 antibodies” and the “Cell Index (+/- SEM)” value ([1]; added with Anti-DSG2 antibody (0.00005 μg/mL)) was 22.4 (1.9). The “Cell Index (+/- SEM)” value ([1]; added with Anti-DSG2 antibody (0.0005 μg/mL)) was 22.4 (1.1), the “Cell Index (+/- SEM)” value ([1]; added with Anti-DSG2 antibody (0.005 μg/mL)) was 20.4 (0.5) and the “Cell Index (+/- SEM)” value ([1]; added with Anti-DSG2 antibody (0.05 μg/mL)) was 21.6 (0.4). The “Cell Index (+/- SEM)” value ([1]; added with Anti-DSG2 antibody (0.5 μg/mL)) was 22.0 (0.8), the “Cell Index (+/- SEM)” value ([1]; added with Anti-DSG2 antibody (5 μg/mL)) was 24.1 (0.5) and the “Cell Index (+/- SEM)” value ([1]; added with Anti-VCAM1 antibody (0.00005 μg/mL)) was 23.2 (0.7). The “Cell Index (+/- SEM)” value ([1]; added with Anti-VCAM1 antibody (0.0005 μg/mL)) was 22.0 (0.5), the “Cell Index (+/- SEM)” value ([1]; added with Anti-VCAM1 antibody (0.005 μg/mL)) was 21.0 (0.5) and the “Cell Index (+/- SEM)” value ([1]; added with Anti-VCAM1 antibody (0.05 μg/mL)) was 21.0 (0.4). The “Cell Index (+/- SEM)” value ([1]; added with Anti-VCAM1 antibody (0.5 μg/mL)) was 21.8 (0.5), the “Cell Index (+/- SEM)” value ([1]; added with Anti-VCAM1 antibody (5 μg/mL)) was 24.6 (0.5) and the “Cell Index (+/- SEM)” value ([1]; added with Rabbit IgG (0.00005 μg/mL)) was 22.5 (1.7). For the same substance, the “Cell Index (+/- SEM)” value ([1]; added with Rabbit IgG (0.0005 μg/mL)) was 22.4 (1.3), the “Cell Index (+/- SEM)” value ([1]; added with Rabbit IgG (0.005 μg/mL)) was 21.0 (0.8) and the “Cell Index (+/- SEM)” value ([1]; added with Rabbit IgG (0.05 μg/mL)) was 21.3 (0.4). The “Cell Index (+/- SEM)” value ([1]; added with Rabbit IgG (0.5 μg/mL)) was 21.1 (0.4), the “Cell Index (+/- SEM)” value ([1]; added with Rabbit IgG (5 μg/mL)) was 24.2 (0.5) and the PDI [2] was 0.33. For the same substance, the “ability to bind and block ARVC serum (in words)” value [3] was “able to bind and block anti-DSG2 antibody as well as serum obtained from ARVC patients”, the “blocking of assay signal from ARVC patient serum samples with strong clinical data (in words)” value ([3]; Example 3, competing DSG2 polypeptide added) was “could also be blocked” and the “% inhibition” value ([3]; sample: ARVC serum 1) was 96.7%. The “% inhibition” value ([3]; sample: ARVC serum 2) was 82.9%, the “% inhibition” value ([3]; sample: ARVC serum 3) was 95.8% and the “% inhibition” value ([3]; sample: ARVC serum 4) was 95.7%. The “% inhibition” value ([3]; sample: ARVC serum 5) was 93.1% and the “rescue of the effect of anti-DSG2 antibodies on cardiomyocyte sodium spike (in words)” value [4] was “rescued; also recorded: completely blocks the effect of the anti-DSG2 antibodies on the sodium spike”.
